Experiment [1] has as its target T1, mPGES-1 (Homo sapiens (Human), UniProt O14684). As to the kind of experiment: mPGES-1 enzyme assay (HTRF detection of PGE2). In kind it is biochemical. As to conditions: recombinant human mPGES-1 microsomes, PGH2 2 μM; read-out: mPGES-1 inhibitory effect in the enzyme assay, IC50. How it is done: Microsomes from Rosetta E. coli bacteria expressing recombinant human mPGES-1 can be derived as described below:
Inoculate 5 ml LB with Ampicilin (50 μg/ml) and Chloramphenicol (34 μg/ml) with bacteria from freeze culture. Incubate 8 h at 37° C. with 200 rpm. Thereafter, inoculate 500-1000 ml LB containing Amp and Chloro with the 5 ml on culture and grow to OD640 of 0.8-1.0. Chill the culture to +4° C. before induction. Induce the culture with IPTG at a final concentration of 400 μM. Express the protein at room temp 18-23° C. with 200 rpm shaking over night.
The following steps can be performed on the following day: • 1. Spin down the cells in 250 ml centrifuge flasks for 15 min at 7000 rpm (Beckmann Coulte Avanti J-E centrifuge) • 2. Dissolve the pellet from 250 ml culture in 12.5 ml homogenization buffer • 3. (15 mM Tris-HCL pH8, 1 mM EDTA pH8, […], 2.5 mM GSH, 1 Tablet Protease inhibitor per 50 ml buffer) • 4. […] Add 2.5 ml MgCl2 (100 mM) and DNase 12.5 μl (0.8 mg/ml) and incubate on ice for 30 min • 6. Spin down the bacteria debris and save the supernatant, 7000 rpm for 15 min • 7. Isolate the protein containing membranes in the supernatant by ultracentrifugation 120000×g for 2 hour at 4° C. (Sorvall T880 rotor). • 8. Discard the supernatant and dissolve the pellet in 20 mM Potassium phosphate buffer pH7.4 (KH2PO4 and K2HPO4) buffer by sonication (5×10 s, 30% of a 50 W sonifier) and aliquot the enzyme and store aliquots at −80° C.
Before each experiment is performed an aliquot of the enzyme is thawed and it can then be dissolved in 0.1 M Potassium phosphate buffer pH7.4 (KH2PO4 and K2HPO4) buffer containing 2.5 mM GSH.
The aim of this assay is to determine the affinity of a test compound for the mPGES-1 enzyme.
47 μl of recombinant human mPGES-1 (˜0.5 μg protein/well) containing microsomal suspension in a buffer containing GSH, (2.5 mmol/L L-Glutathione reduced, dissolved in 0.1 mol/L Phosphat Buffer pH 7.4) is dispensed in a 384-well plate and thereafter 1 μl of the test compound(s) is/are added and incubated for 25 minutes at room temperature. The enzyme reaction is started by the addition of 2 ul PGH2 (final conc. 2 μM) dissolved in water-free Diglyme. After 60 seconds the reaction is terminated by addition of a stop solution containing FeCl2 (10 μL 0.074 mol/l FeCl2). The samples are diluted between 1:25 in PBS (Phosphate Buffered Saline). 10 μl of the diluted samples are transferred to 384-well low volume plate. In order to quantify the amount of PGE2 that has been formed, a homogenous time resolved fluorescent (HTRF) detecting of PGE2 has been performed using a commercially available kit from Cisbio according to the manufactures recommendation. […] Briefly, the diluted samples are mixed with 5 μl PGE2-d2 conjungate and 5 μl anti-PGE2 cryptate conjungate. After an incubation period of the plates over night, the fluorescence is measured by the use of an appropriate microplate reader.
The quantification plate contains also wells with different concentrations of PGE2 as calibration curve for the calculation of the PGE2 concentrations from the HTRF ratio values.
From all mPGES enzyme assay the background is subtracted and the IC50 is calculated over a nonlinear regression with conventional software.

Experiment [2] concerns the target T1, mPGES-1. As to the kind of experiment: A549 cell-based assay (PGE2 formation, IL-1β stimulated, 50% human serum). Conditions: A549 cells. On the procedure: Although the enzymatic assay is a high throughput assay the disadvantage is that it uses a recombinant protein which is not in its natural environment. Accordingly a cellular assay was established in which a cell line of human origin (A549) expressing the mPGES-1 protein was used. In addition in order to mimic the situation in humans in which compounds can be bound to plasma proteins 50% human serum is added in the assay.
Cells were detached using Trypsin-EDTA. A549 cells were seeded in a 384-well collagene plate at a density of 7000 cells/well (50 μl) in F-12 medium containing 1% Penicillin-Streptomycin and 50% human serum. The cells were allowed to attach for 3-4 h. […] The total volume is 100 μl.
Concentrations of PGE2 in the cell free medium (10 μl) were measured using a commercially available HTRF kit from Cisbio (as described above). The PGE2 formation in the absence of test compound was taken as 100%.
IC50 values were derived from at 6-8 point titrations using conventional software.

The mark [3] stands for this setting: IL-1β 5 ng/ml, read-out: mPGES-1 inhibitory effect in the cell assay, IC50.

Molecules are shown by their SMILES.

T1 sequence (O14684 whole entry): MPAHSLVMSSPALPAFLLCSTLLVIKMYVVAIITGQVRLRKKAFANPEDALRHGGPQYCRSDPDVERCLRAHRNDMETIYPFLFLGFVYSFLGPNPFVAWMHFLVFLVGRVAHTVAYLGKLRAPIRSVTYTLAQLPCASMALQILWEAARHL

Take `Cn1c(Nc2c(Cl)ccc(CNC(=O)C(C)(C)C)c2Cl)nc2cc(C(=O)N[C@H]3CC[C@H](C(F)(F)F)CC3)c(OCC(F)F)cc21` [Example 1, N-(trans-4-Trifluoromethyl-cyclohex-1-yl)-2-{2,6-dichloro-3-[(2,2-dimethyl-propionylamino)-methyl]-phenylamino}-6-(2,2-difluoro-ethoxy)-1-methyl-1H-benzimidazole-5-carboxylic acid amide]: the IC50 is 2 nM at mPGES-1 [1] and less than 1 nM on mPGES-1 [2] (setting [3]).

`CC(C)(C)C(=O)NCc1ccc(Cl)c(Nc2nc3cc(C(=O)N[C@H]4CC[C@H](C(F)(F)F)CC4)c(OCC(F)F)cc3[nH]2)c1Cl` [Example 2, N-(trans-4-Trifluoromethyl-cyclohex-1-yl)-2-{2,6-dichloro-3-[(2,2-dimethyl-propionylamino)-methyl]-phenylamino}-6-(2,2-difluoro-ethoxy)-1H-benzimidazole-5-carboxylic acid amide]: the IC50 at mPGES-1 [1] was found to be 2 nM; on mPGES-1 [2] (setting [3]) it was 3 nM.

As to `Cn1c(Nc2c(Cl)ccc(CNC(=O)C(C)(C)C)c2Cl)nc2cc(C(=O)N[C@H]3CC[C@H](C(F)(F)F)CC3)c(F)cc21` [Example 3, N-(trans-4-Trifluoromethyl-cyclohex-1-yl)-2-{2,6-dichloro-3-[(2,2-dimethyl-propionylamino)-methyl]-phenylamino}-6-fluoro-1-methyl-1H-benzimidazole-5-carboxylic acid amide], the IC50 at mPGES-1 [1] is 4 nM; on mPGES-1 [2] (setting [3]) it was 1 nM.

On to `CC(C)(C)C(=O)NCc1ccc(Cl)c(Nc2nc3cc(C(=O)Nc4ccc(Br)cc4)c(OCC(F)F)cc3[nH]2)c1Cl` [Example 4, N-(4-Bromo-phenyl)-2-{2,6-dichloro-3-[(2,2-dimethyl-propionylamino)-methyl]-phenylamino}-6-(2,2-difluoro-ethoxy)-1H-benzimidazole-5-carboxylic acid amide], for which the IC50 on mPGES-1 [1] came to 4 nM; at mPGES-1 [2] (setting [3]), 2 nM.

Regarding `Cn1c(Nc2c(Cl)ccc(CNC(=O)C(C)(C)C)c2Cl)nc2cc(C(=O)Nc3ccc(Br)cc3)c(OCC(F)F)cc21` [Example 5, N-(4-Bromo-phenyl)-2-{2,6-dichloro-3-[(2,2-dimethyl-propionylamino)-methyl]-phenylamino}-6-(2,2-difluoro-ethoxy)-1-methyl-1H-benzimidazole-5-carboxylic acid amide], the values for the concentration for half-maximal inhibition (IC50) on mPGES-1 [1] and on mPGES-1 [2] (setting [3]) were 2 nM and less than 1 nM, respectively.

Take `Cn1c(Nc2c(Cl)ccc(CNC(=O)C(C)(C)C)c2F)nc2cc(C(=O)Nc3ccc(Br)cc3)c(OCC(F)F)cc21` [Example 8]: the IC50 at mPGES-1 [1] is 3 nM; at mPGES-1 [2] (setting [3]), less than 1 nM.

Take `CC(C)(C)C(=O)NCc1ccc(F)c(Nc2nc3cc(C(=O)Nc4ccc(F)c(Cl)c4)c(F)cc3[nH]2)c1F` [Example 24]: the IC50 on mPGES-1 [1] worked out at 3 nM.

`Cn1c(Nc2c(Cl)ccc(CNC(=O)CC#N)c2Cl)nc2cc(C(=O)Nc3ccc(F)c(Cl)c3)c(OCC(F)F)cc21` [Example 154]: at mPGES-1 [2] (setting [3]), the concentration for half-maximal inhibition (IC50) was 36 nM.

With `Cn1c(Nc2c(Cl)ccc(CNC(=O)C(C)(C)CO)c2Cl)nc2cc(C(=O)Nc3ccc(F)c(Cl)c3)c(OCC(F)F)cc21` [Example 155], the half-maximal inhibitory concentration (IC50) on mPGES-1 [2] (setting [3]) stood at 2 nM.

For `Cn1ccnc1C(=O)NCc1ccc(Cl)c(Nc2nc3cc(C(=O)Nc4ccc(F)c(Cl)c4)c(OCC(F)F)cc3n2C)c1Cl` [Example 156], the half-maximal inhibitory concentration (IC50) on mPGES-1 [2] (setting [3]) was 10 nM.

`Cn1c(Nc2c(Cl)ccc(CNC(=O)c3c(F)cccc3Cl)c2Cl)nc2cc(C(=O)Nc3ccc(F)c(Cl)c3)c(OCC(F)F)cc21` [Example 158]: the half-inhibitory concentration (IC50) on mPGES-1 [2] (setting [3]) is less than 1 nM.

For `Cn1c(Nc2c(Cl)ccc(CNC(=O)C(F)F)c2Cl)nc2cc(C(=O)Nc3ccc(F)c(Cl)c3)c(OCC(F)F)cc21` [Example 159], the IC50 on mPGES-1 [2] (setting [3]) came to 1 nM.

`Cn1c(Nc2c(Cl)ccc(CNC(=O)C3CCCC3)c2Cl)nc2cc(C(=O)Nc3ccc(F)c(Cl)c3)c(OCC(F)F)cc21` [Example 160]: the half-inhibitory concentration (IC50) on mPGES-1 [2] (setting [3]) was less than 1 nM.

Consider `Cn1c(Nc2c(Cl)ccc(CNC(=O)C(O)C(F)(F)F)c2Cl)nc2cc(C(=O)Nc3ccc(F)c(Cl)c3)c(OCC(F)F)cc21` (stereo not shown) [Example 161], for which the IC50 on mPGES-1 [2] (setting [3]) was determined as 2 nM.

For `Cn1c(Nc2c(Cl)ccc(CNC(=O)C(C)(F)F)c2Cl)nc2cc(C(=O)Nc3ccc(F)c(Cl)c3)c(OCC(F)F)cc21` [Example 162], the half-inhibitory concentration (IC50) at mPGES-1 [2] (setting [3]) is less than 1 nM.

Take `COCC(=O)NCc1ccc(Cl)c(Nc2nc3cc(C(=O)Nc4ccc(F)c(Cl)c4)c(OCC(F)F)cc3n2C)c1Cl` [Example 163]: the concentration for half-maximal inhibition (IC50) at mPGES-1 [2] (setting [3]) stood at 5 nM.

For the compound `Cn1c(Nc2c(Cl)ccc(CNC(=O)C(N)C(F)(F)F)c2Cl)nc2cc(C(=O)Nc3ccc(F)c(Cl)c3)c(OCC(F)F)cc21` (stereo not shown) [Example 164], the 50% inhibitory concentration (IC50) on mPGES-1 [2] (setting [3]) stood at 15 nM.

As to `Cn1c(Nc2c(Cl)ccc(CNC(=O)C3(C(F)(F)F)CCCC3)c2Cl)nc2cc(C(=O)Nc3ccc(F)c(Cl)c3)c(OCC(F)F)cc21` [Example 165], at mPGES-1 [2] (setting [3]), the half-maximal inhibitory concentration (IC50) is less than 1 nM.

Take `Cn1c(Nc2c(Cl)ccc(CNC(=O)c3ccno3)c2Cl)nc2cc(C(=O)Nc3ccc(F)c(Cl)c3)c(OCC(F)F)cc21` [Example 166]: the IC50 at mPGES-1 [2] (setting [3]) was 7 nM.

`Cn1c(Nc2c(Cl)ccc(CNC(=O)C3CC(F)(F)C3)c2Cl)nc2cc(C(=O)Nc3ccc(F)c(Cl)c3)c(OCC(F)F)cc21` [Example 167]: the IC50 at mPGES-1 [2] (setting [3]) was 6 nM.

Turning to `Cn1c(Nc2c(Cl)ccc(CNC(=O)c3sccc3Cl)c2Cl)nc2cc(C(=O)Nc3ccc(F)c(Cl)c3)c(OCC(F)F)cc21` [Example 168], the half-inhibitory concentration (IC50) on mPGES-1 [2] (setting [3]) was less than 1 nM.

Turning to `Cn1c(Nc2c(Cl)ccc(CNC(=O)C3(C)CCCO3)c2Cl)nc2cc(C(=O)Nc3ccc(F)c(Cl)c3)c(OCC(F)F)cc21` (stereo not shown) [Example 170], the half-maximal inhibitory concentration (IC50) on mPGES-1 [2] (setting [3]) was less than 1 nM.

As for `Cn1c(Nc2c(Cl)ccc(CNC(=O)C3(O)CC3)c2Cl)nc2cc(C(=O)Nc3ccc(F)c(Cl)c3)c(OCC(F)F)cc21` [Example 171], the 50% inhibitory concentration (IC50) at mPGES-1 [2] (setting [3]) stood at 4 nM.

With `Cn1c(Nc2c(Cl)ccc(CNC(=O)C3CCC3)c2Cl)nc2cc(C(=O)Nc3ccc(F)c(Cl)c3)c(OCC(F)F)cc21` [Example 172], on mPGES-1 [2] (setting [3]), the IC50 turned out to be 2 nM.

For `Cn1c(Nc2c(Cl)ccc(CNC(=O)C3(C(F)(F)F)CC3)c2Cl)nc2cc(C(=O)Nc3ccc(F)c(Cl)c3)c(OCC(F)F)cc21` [Example 174], the IC50 on mPGES-1 [2] (setting [3]) is less than 1 nM.

Consider `Cn1c(Nc2c(Cl)ccc(CNC(=O)C(C)(C)C(F)(F)F)c2Cl)nc2cc(C(=O)Nc3ccc(F)c(Cl)c3)c(OCC(F)F)cc21` [Example 176], for which, on mPGES-1 [2] (setting [3]), the IC50 was less than 1 nM.

Take `Cn1c(Nc2c(Cl)ccc(CNC(=O)C(C)(C)C)c2Cl)nc2cc(C(=O)Nc3ccc(F)c(Cl)c3)c(OCCF)cc21` [Example 177, N-(3-Chloro-4-fluoro-phenyl)-2-{2,6-dichloro-3-[(2,2-dimethyl-propionylamino)-methyl]-phenylamino}-6-(2-fluoroethoxy)-1-methyl-1H-benzimidazole-5-carboxylic acid amide]: the IC50 on mPGES-1 [2] (setting [3]) is less than 1 nM.

In the case of `Cn1c(Nc2cc(CNC(=O)C(C)(C)C)ccc2Cl)nc2cc(C(=O)NCC3CC3)c(OCC(F)F)cc21` [[drawing 49] of PCT/EP2010/052799, reference compound], the IC50 at mPGES-1 [2] (Table C comparison of selected benzimidazoles, read-out: Cell IC50) is more than 200 nM.

Values taken from patent US8759537B2, “3H-imidazo [4, 5-C] pyridine-6-carboxamides as anti-inflammatory agents” (Boehringer Ingelheim International GmbH, priority 2010, dated 2014).
